Experimental data from the NIST ThermoML archive (doi:10.1021/je9006037).

Experiment: refractive index (Na D-line) (dimensionless); xn = mol fraction of the nth substance listed
Settings: 101 kPa, Liquid

CCn1cc[n+](C)c1.O=S(=O)([O-])C(F)(F)F [1-ethyl-3-methylimidazolium trifluoromethanesulfonate] + CC(C)O
refractive index
Settings	288.15 K	298.15 K	308.15 K	318.15 K	328.15 K	338.15 K
x1 = 0.04997	1.38697	1.38304	1.37919	1.3753	1.37148	1.36735
x1 = 0.09937	1.39302	1.38935	1.38578	1.38236	1.37896	1.37487
x1 = 0.1504	1.39853	1.39494	1.39186	1.38861	1.38506	1.38103
x1 = 0.1995	1.40326	1.39957	1.39662	1.39356	1.39032	1.38662
x1 = 0.2508	1.40739	1.40382	1.40089	1.39817	1.39474	1.3916
x1 = 0.2997	1.411	1.4074	1.40439	1.40147	1.3983	1.39544
x1 = 0.3988	1.41689	1.41365	1.41071	1.40758	1.40457	1.40189
x1 = 0.5014	1.42209	1.41872	1.41564	1.41261	1.40972	1.4068
x1 = 0.6012	1.42562	1.42259	1.41956	1.41667	1.41379	1.41098
x1 = 0.6972	1.42868	1.42574	1.42285	1.41998	1.41714	1.41431
x1 = 0.7978	1.43159	1.42861	1.42579	1.42298	1.42017	1.41738
x1 = 0.8342	1.43251	1.42965	1.42678	1.42395	1.42115	1.41837
x1 = 0.8905	1.43379	1.43098	1.42818	1.42541	1.42264	1.41986
x1 = 1	1.43599	1.43322	1.4304	1.42767	1.42494	1.42222
